This is an account of results in patent publication US20250204520A1, “USE OF SODIUM SELENITE IN PREVENTION AND/OR A[…] TEA TREE SUNBURN” (ANHUI AGRICULTURAL UNIVERSITY, priority 2023, published 2025).

Format in all cases: in vivo, 'Huangjinye' tea tree variety
One assay deals with tea tree. Put plainly: Malondialdehyde (MDA) content of tea tree leaves after spraying sodium selenite, with and without simulated sunburn. The conditions noted are these: 3 mg/L Na2SeO3 sprayed. As for the experimental part:
A method for preventing and/or alleviating tea tree sunburn included: • Experimental base: artificial climate chamber of Anhui Agricultural University; • Experimental subjects: ‘Huangjinye’ tea tree variety;
2. Preparation of Na2SeO3 treatment solution: 3.0 mg sodium selenite crystal powder was dissolved in 1 L of pure water (concentration: 3.0 mg/L).
3. Seedling growth environment: the purchased tea seedlings were planted in a flower pot with a diameter of 20 cm (nutrient soil, vermiculite, and perlite) were at a volume ratio of 2:1:1, and then placed in a glass greenhouse.
Normal growth environment: temperature 28° C., humidity 80%, and light intensity500 μmol·m^−2·s^−1.
Sunburn-simulated environment: temperature 34° C., humidity 60%, and light intensity 1,600 μmol·m^−2·s^−1.
4. […]
After sunburn treatment for 4 h, 0.5 g samples of the 3rd and 4th leaves of mature tea tree leaves were added in a mortar separately, added with 5 mL of 5% (v/v) trichloroacetic acid and ground. […] After rapid cooling and centrifugation at 4,000 r/min for 10 min, a supernatant was detected using a UV spectrophotometer at […], 600 nm, and 450 nm separately, and the data were recorded and analyzed. […]

The subject of assay [1] is tea tree sunburn. As to the kind of experiment: Fv/Fm value of tea trees treated with exogenous selenium under sunburn. The note with it: under sunburn conditions (water treatment group: 42.09%). As to the method:
(§1) 4. Anti-sunburn test of different concentrations of selenium: tea seedlings with roughly the same growth rate were sprayed with 0, 1.0, 2.0, 3.0, and 4.0 mg/L sodium selenite solution on the surface of their leaves at a distance of 3 cm to 5 cm from the leaves until liquid droplets were falling from the leaves, spray once a day for continuous 4 days; while a control group was sprayed with the same amount of water.
(§2) After an interval of 2 d after the end of the external treatment, the tea seedlings were placed in an artificial climate chamber (temperature: 34° C., humidity: 60%, light intensity: 1600 μmol·m^−2·s^−1) to allow simulated sunburn treatment for 4 h, and then observed, photographed, and statistics were made.
Influences of different concentrations of selenium on the apparent morphology of tea trees under sunburn: compared with the selenium treatment group, the water treatment group had the largest number of burned leaves and the largest lesion area. […] The decrease in Fv/Fm value of tea trees in the 4 selenium treatment groups was smaller than that in the water treatment group, where the Fv/Fm value of the treatment with a selenium concentration of 3.0 mg/L had the minimum decrease. Moreover, external spraying of sodium selenite could indeed alleviate the tea tree sunburn, and 3.0 mg/L Na2SeO3 solution had the best effect.

Assay [2] deals with tea tree sunburn. As to the kind of experiment: Anti-sunburn test of different concentrations of selenium: disease index, incidence and control effect after simulated sunburn. The conditions noted are these: for Incidence: foliar spray 4 days, simulated sunburn 4 h; for Disease index: foliar spray once a day for 4 days, simulated sunburn 34° C., 1600 μmol·m^−2·s^−1, 4 h; for Efficacy (control effect): calculated from disease index vs control group. As for the experimental part: A method for preventing and/or alleviating tea tree sunburn included: • Experimental base: artificial climate chamber of Anhui Agricultural University; • Experimental subjects: ‘Huangjinye’ tea tree variety; • Experimental procedure:
2. Preparation of Na2SeO3 treatment solutions with different concentrations: 1.0, 2.0, 3.0, and 4.0 mg sodium selenite crystal powders were dissolved in 1 L of pure water (with final concentrations of 1.0, 2.0, 3.0, and 4.0 mg/L, respectively).
3. Seedling cultivation: the purchased tea seedlings were planted in a flower pot with a diameter of 20 cm, where nutrient soil, vermiculite, and perlite were at a volume ratio of 2:1:1; growth environment: temperature 28° C., humidity 80%, and light intensity 500 μmol·m^−2·s^−1.
as §1, §2
The number of leaves at each disease level was counted according to the degree of disease susceptibility, and the average incidence rate and disease index were calculated according to the formula to determine the severity of tea leaf diseases. Incidence rate=number of diseased leaves/total number of investigated leaves×100%, disease index=[Σ(number of leaves at each disease level×representative value of disease level)/(total number of investigated leaves×representative value of highest level)]×100; control effect (%)=[(control group condition index-treatment group condition index)/control group condition index]×100%.

[3] abbreviates: selenium concentration 1.0 mg/L.
[4] abbreviates: selenium concentration 2.0 mg/L.
Where [5] appears, read: selenium concentration 3.0 mg/L.
Where [6] appears, read: selenium concentration 4.0 mg/L.

Take `O=[Se]([O-])[O-].[Na+].[Na+]` [selenium, sodium selenite]: the “Reduction of MDA content compared with the control” value in the assay with tea tree (non-sunburn growth conditions (Se vs CK)) is 22.14%. In the assay on tea tree (simulated sunburn 4 h (SeH vs CKH)), the “Decrease of MDA content compared with the water treatment group under sunburn” value is 19.89%. The “Decrease of Fv/Fm value compared with the control CK” value amounted to 30.29% in the assay on tea tree sunburn [1] (setting [3]), 23.72% in the assay on tea tree sunburn [1] (setting [4]), 17.86% in the assay with tea tree sunburn [1] (setting [5]) and 34.32% in the assay on tea tree sunburn [1] (setting [6]). Besides, the “Number of sunburned leaves and area of diseased spots (apparent morphology)” value in the assay on tea tree sunburn [2] (concentration of 3.0 mg/L, among the four spraying concentrations, under sunburn) is “least amount and the smallest lesion area”. Also, the “Reduction of incidence of sunburn compared with the group without selenium treatment” value is listed as 33.83% in the assay on tea tree sunburn [2] (setting [3]), 29.62% in the assay on tea tree sunburn [2] (setting [4]), 78.14% in the assay with tea tree sunburn [2] (setting [5]) and 9.84% in the assay with tea tree sunburn [2] (setting [6]). Further, the Incidence was 12.11 ± 3.38b % with tea tree sunburn [2] (setting [3]), 12.88 ± 0.66ab % with tea tree sunburn [2] (setting [4]), 4.00 ± 0.00d % with tea tree sunburn [2] (setting [5]) and 16.50 ± 3.80a % in the assay with tea tree sunburn [2] (setting [6]). The Disease index in the assay with tea tree sunburn [2] (setting [3]) is 1.13 ± 0.26bc; in the assay with tea tree sunburn [2] (setting [4]), 1.13 ± 0.35bc; in the assay with tea tree sunburn [2] (setting [5]), 0.22 ± 0.08 days; in the assay with tea tree sunburn [2] (setting [6]), 1.62 ± 0.23ab. Also, the “Efficacy (control effect)” value is given as 42.61% with tea tree sunburn [2] (setting [3]), 42.61% with tea tree sunburn [2] (setting [4]), 89.38% in the assay with tea tree sunburn [2] (setting [5]) and 17.58% in the assay with tea tree sunburn [2] (setting [6]).
